Test results as given in patent US11466023B2, “Combination of a Mcl-1 inhibitor and a standard of care treatment for hematologic cancers, uses and pharmaceutical compositions thereof” (LES LABORATOIRES SERVIER, priority 2017, dated 2022).
Where two headings read alike, the source gives them in different places.

Legend:
[1] = tested on: mononuclear cells from AML patient samples; experiment: Cell viability assay (Sytox blue flow cytometry) in primary AML samples; type: cell-based, human; conditions: combination at 1:1 ratio, read-out: 50% lethal concentration (LC50)
Procedure: Bone marrow samples from patients with AML were collected after informed consent in accordance with guidelines approved by The Alfred Hospital Human research ethics committee.
Mononuclear cells were isolated by density-gradient centrifugation Ficoll-Hypaque (GE Healthcare, Australia) density-gradient centrifugation and red cell lysis was performed using 0.156 M NH4Cl, 0.017 M Tris-HCl pH 7.2 as previously described (Rijal et al., Blood 2015, 125, 2815-2824). Cells were then re-suspended in phosphate-buffered saline containing 2% Fetal Bovine serum (FBS; Sigma, Australia). Mononuclear cells were then suspended in RPMI-1640 (GIBCO, Australia) medium containing penicillin and streptomycin (GIBCO) and heat inactivated fetal bovine serum 15% (Sigma). Cells were washed in phosphate-buffered saline (PBS) containing 2% FBS prior to use.
Freshly purified mononuclear cells from AML patient samples were adjusted to a concentration of 2.5×10^5/mL and 100 μL of cells aliquoted per well into 96 well plates (Sigma). Cells were then treated with idarubicin and Compound 2 over a […] concentration range from 1 nM to 10 μM for 48 hours. For combinations assays, drugs were added at a 1:1 ratio from 1 nM to 10 μM and cells were incubated at 37° C. 5% CO2. Cells were then stained with Sytox blue nucleic acid stain (Invitrogen, Australia) and fluorescence measured by flow cytometric analysis using the LSR-II Fortessa (Becton Dickinson, Australia). FACSDiva software was used for data collection, and FlowJo software for analysis. Blast cells were gated using forward and side scatter properties. Viable cells excluding Sytox blue were determined at 6 concentrations for each drug and the 50% lethal concentration (LC50, in μM) determined.

[2] = tested on: OCI-AML3 AML cell line; experiment: Single agent cell viability (CellTiterGlo); type: cell-based
Procedure: (§1) Cell lines were cultured at 37° C. in a humidified atmosphere containing 5% CO2 and expanded in T-150 flasks. […] In order to analyse the activity of the compounds as single agents, cells were seeded and treated with nine 2-fold serial dilutions of each compound dispensed individually directly into the cell assay plates. […] All the experiments were performed in triplicates. Luminescence was quantified on a multipurpose plate reader. Single agent IC50s were calculated using standard four-parametric curve fitting.

[3] = tested on: Nomo-1 AML cell line; experiment: Single agent cell viability (CellTiterGlo); type: cell-based
Procedure: as §1

[4] = tested on: EOL-1 AML cell line; experiment: Single agent cell viability (CellTiterGlo); type: cell-based
Procedure: as §1

[5] = tested on: HL-60 AML cell line; experiment: Single agent cell viability (CellTiterGlo); type: cell-based
Procedure: as §1

[6] = tested on: Kasumi-1 AML cell line; experiment: Single agent cell viability (CellTiterGlo); type: cell-based
Procedure: as §1

[7] = tested on: MV4; 11 AML cell line; experiment: Single agent cell viability (CellTiterGlo); type: cell-based
Procedure: as §1

[8] = tested on: GDM-1 AML cell line; experiment: Single agent cell viability (CellTiterGlo); type: cell-based
Procedure: as §1

[9] = tested on: ML-2 AML cell line; experiment: Single agent cell viability (CellTiterGlo); type: cell-based
Procedure: as §1

[10] = tested on: THP-1 AML cell line; experiment: Single agent cell viability (CellTiterGlo); type: cell-based
Procedure: as §1

[11] = tested on: PL-21 AML cell line; experiment: Single agent cell viability (CellTiterGlo); type: cell-based
Procedure: as §1

[12] = tested on: MOLM-13 AML cell line; experiment: Single agent cell viability (CellTiterGlo); type: cell-based
Procedure: as §1

[13] = tested on: KG1 AML cell line; experiment: Single agent cell viability (CellTiterGlo); type: cell-based
Procedure: as §1

[14] = tested on: KG1a AML cell line; experiment: Single agent cell viability (CellTiterGlo); type: cell-based
Procedure: as §1

[15] = tested on: normal human CD34+ progenitor cells; conditions: 100 nM
[16] = tested on: primary AML samples; conditions: a subset of primary AML samples, 100 nM
[17] = OCI-AML3, single agent, 3 days incubation, CellTiterGlo, read-out: IC50
[18] = Nomo-1, single agent, 3 days incubation, CellTiterGlo, read-out: IC50
[19] = EOL-1, single agent, 3 days incubation, CellTiterGlo, read-out: IC50
[20] = HL-60, single agent, 3 days incubation, CellTiterGlo, read-out: IC50
[21] = Kasumi-1, single agent, 3 days incubation, CellTiterGlo, read-out: IC50
[22] = MV4, 11, single agent, 3 days incubation, CellTiterGlo, read-out: IC50
[23] = GDM-1, single agent, 3 days incubation, CellTiterGlo, read-out: IC50
[24] = ML-2, single agent, 3 days incubation, CellTiterGlo, read-out: IC50
[25] = THP-1, single agent, 3 days incubation, CellTiterGlo, read-out: IC50
[26] = PL-21, single agent, 3 days incubation, CellTiterGlo, read-out: IC50
[27] = MOLM-13, single agent, 3 days incubation, CellTiterGlo, read-out: IC50
[28] = KG1, single agent, 3 days incubation, CellTiterGlo, read-out: IC50
[29] = KG1a, single agent, 3 days incubation, CellTiterGlo, read-out: IC50

Cc1c(-c2c(-c3ccc(F)o3)sc3ncnc(O[C@H](Cc4ccccc4OCc4ccnn4CC(F)(F)F)C(=O)O)c23)ccc(OCCN2CCN(C)CC2)c1Cl [Compound 2, (2R)-2-{[(5Sa)-5-{3-chloro-2-methyl-4-[2-(4-methylpiperazin-1-yl)ethoxy]phenyl}-6-(5-fluorofuran-2-yl)thieno[2,3-d]pyrimidin-4-yl]oxy}-3-(2-{[1-(2,2,2-trifluoroethyl)-1H-pyrazol-5-yl]methoxy}phenyl)propanoic acid] showed a CC50 ([1]; Patient AML 6200840, 48 hours) of 0.227 µM, a CC50 ([1]; Patient AML AH0131936, 48 hours) of 10.7 µM and a CC50 ([1]; Patient AML AH0465385, 48 hours) of 23 µM. For the same molecule, the CC50 ([1]; Patient AML AH0607688, 48 hours) was 22.9 µM, the CC50 ([1]; Patient AML AH0979006, 48 hours) was 0.0618 µM and the CC50 ([1]; Patient AML AH1081582, 48 hours) was 4.36 µM. The CC50 ([1]; Patient AML AH1228742, 48 hours) was 5360 µM, the CC50 ([1]; Patient AML AH6120264, 48 hours) was 0.679 µM and the CC50 ([1]; Patient AML AH6181414_2, 48 hours) was 15.5 µM. For the same molecule, the CC50 ([1]; Patient AML AH6202849, 48 hours) was 13 µM, the CC50 ([1]; Patient AML AH6208160, 48 hours) was 21.6 µM and the CC50 ([1]; Patient AML AH6208654, 48 hours) was 9.42 µM. It also gave a CC50 ([1]; Patient AML AH6210946, 48 hours) of 0.0556 µM, a CC50 ([1]; Patient AML AH6214498, 48 hours) of 0.000868 µM and a CC50 ([1]; Patient AML AH6217528, 48 hours) of 1.16 µM. For the same molecule, the CC50 ([1]; Patient AML AH6219953, 48 hours) was 38.8 µM, the CC50 ([1]; Patient AML AH6220847, 48 hours) was 0.21 µM and the CC50 ([1]; Patient AML AH6223646, 48 hours) was 0.148 µM. For the same molecule, the CC50 ([1]; Patient AML AH6224104, 48 hours) was 608 µM, the CC50 ([1]; Patient AML AH6229985, 48 hours) was 0.00483 µM and the CC50 ([1]; Patient AML AH6607085, 48 hours) was 0.143 µM. The CC50 ([1]; Patient AML AH6615742, 48 hours) was 14.5 µM, the CC50 ([1]; Patient AML AH6627892, 48 hours) was 14.2 µM and the IC50 [2, 17] was 0.34 µM. It also gave an IC50 [3, 18] of 0.022 µM, an IC50 [4, 19] of 0.002 µM and an IC50 [5, 20] of 0.086 µM. The IC50 [6, 21] was 0.066 µM, the IC50 [7, 22] was 0.001 µM and the IC50 [8, 23] was 0.027 µM. It also gave an IC50 [9, 24] of 0.022 µM, an IC50 [10, 25] of 0.051 µM and an IC50 [11, 26] of 0.238 µM. For the same molecule, the IC50 [12, 27] was 0.004 µM, the IC50 [13, 28] was 0.413 µM and the IC50 [14, 29] was 2.2 µM. The clonogenic growth [15] was “resistant” and the clonogenic growth [16] was “resistant”.

With COc1ccccc1-c1nccc(COc2ccccc2C[C@@H](Oc2ncnc3sc(-c4ccc(F)cc4)c(-c4ccc(OCCN5CCN(C)CC5)c(Cl)c4C)c23)C(=O)O)n1 [Compound 1, (2R)-2-{[(5Sa)-5-{3-chloro-2-methyl-4-[2-(4-methylpiperazin-1-yl)ethoxy]phenyl}-6-(4-fluorophenyl)thieno[2,3-d]pyrimidin-4-yl]oxy}-3-(2-{[2-(2-methoxyphenyl)pyrimidin-4-yl]methoxy}phenyl)propanoic acid] the IC50 [2, 17] was 0.146 µM, the IC50 [3, 18] was 0.013 µM and the IC50 [4, 19] was 0.001 µM. For the same molecule, the IC50 [5, 20] was 0.025 µM, the IC50 [6, 21] was 0.033 µM and the IC50 [7, 22] was 0.001 µM. The IC50 [8, 23] was 0.008 µM, the IC50 [9, 24] was 0.005 µM and the IC50 [10, 25] was 0.017 µM. It also gave an IC50 [11, 26] of 0.065 µM, an IC50 [12, 27] of 0.002 µM and an IC50 [13, 28] of 0.39 µM. It also gave an IC50 [14, 29] of 2 µM.

With Nc1ncn([C@H]2C[C@H](O)[C@@H](CO)O2)c(=O)n1 [Decitabine, decitabine] the IC50 ([2]; Homo sapiens, OCI-AML-3, 72 h) was 8 µM, the IC50 ([3]; Homo sapiens, NOMO-1, 72 h) was > 5 µM and the IC50 ([4]; Homo sapiens, EOL1, 72 h) was 0.49 µM. It also gave an IC50 ([5]; Homo sapiens, HL-60, 72 h) of 14 µM, an IC50 ([6]; Homo sapiens, Kasumi 1, 72 h) of 5.5 µM and an IC50 ([7]; Homo sapiens, MV4-11, 72 h) of 0.4 µM. For the same molecule, the IC50 ([8]; Homo sapiens, GDM-1, 72 h) was 41 µM, the IC50 ([9]; 72 h) was 14 µM and the IC50 ([10]; Homo sapiens, THP-1, 72 h) was > 30 µM. For the same molecule, the IC50 ([11]; PL-21, 72 h) was > 5 µM, the IC50 ([12]; Homo sapiens, MOLM-13, 72 h) was 0.4 µM and the IC50 ([13]; 72 h) was 5.8 µM. It also gave an IC50 ([14]; Homo sapiens, KG-1a, 72 h) of 14 µM.
